Data on 1 substance can be found in patent publication US7442547B2, “Dendritic cells and the uses thereof in screening cellular targets and potential drugs” (Sekmed, S.R.L., priority 2001, dated 2008).

Assay [1] has as its system DC (D1, D8, BMDC/RAG2−/−). Kind of assay: IL-2 production by DC after stimulation in vitro (IL-2 ELISA of supernatant). Format: cell-based, mouse. The settings on record: splenic (D1) and bone marrow-derived DC (D8, BMDC/RAG2−/−), long- and short-term lines. As to the method: Antibodies and Reagents. LPS (E. Coli 026:B6, used at 10 μg/ml) and zymosan (used at 10 μg/ml) were obtained from Sigma Chem. (St. Louis, Mo.). rTNF, (San Francisco) and rIL-1. (Genzyme, Cambridge Mass.) were used at 100 U/ml and 10 μg/ml respectively. IFN was kindly provided by Schering-Plough (Dardilli, Fr.) and used at 1000 U/ml. CpG ([…])(SEQ ID NO. 5) and CpG control ([…]) (SEQ ID NO. 6) oligos were purchased from Life Technologies and used at a concentration of 1 µM. PE-conjugated anti-IL-2, PE-conjugated rat Isotype control, biotinilated anti-CD8α and FITC-conjugated anti-CD11c monoclonal antibodies were purchased from Pharmingen. Quantum-red-conjugated streptavidin was obtained from Sigma. Anti-I-A^d/I-E^d mAb (clone M5 /114, rat IgG2b) was kindly provided by Dr. A. Ager (NIMR, London, UK). FITC-conjugated anti-rat was from Jackson ImmunoResearch (West Grove, Pa.). Anti-CD40 antibody [clone FGK45 (10)] was used at a concentration of 20 μg/ml and crosslinked with a monoclonal anti-rat antibody (10 μg/ml, PharMingen).
DC and culture medium. D1 and D8.1 long term DC were cultured in IMDM (Sigma, St. Louis, Mo.) containing 10% heat-inactivated fetal bovine serum (GIBCO), 100 IU penicillin, 100 μg/ml streptomycin, 2 mM L-glutamine (all from Sigma), and 50 μM 2-mercaptoethanol (complete IMDM) with 30% supernatant from R1 medium [supernatant from NIH3T3 fibroblasts transfected with GM-CSF].
Fresh BMDCRAG2−/− were derived from RAG2−/− BALB/c or C57BL/6 bone marrow cells. Usually bone marrow cells cultured for two days and frozen. BMDCRAG2−/− were obtained from defrost cells after 7 days of culture in medium containing 10% of supernatant of GM-CSF transduced B16 tumor cells. BMDCRAG2−/− were used for activation only if they were immature, as judged by low B7.2 and CD40 expression.
IL-2 ELISA. IL-2 ELISA was performed using the DuoSet kit (R and D, Minneapolis, Minn.) and following the manufacturer recommendations. […]
Background: In an ELISA, binding on a coated surface is turned into a signal by an enzyme label.

In another assay the test system is D1 cells. Kind of assay: Growth of D1 cells after stimulation (number of viable cells). The class given is cell-based, mouse. An excerpt:
D1 cells were stimulated either with LPS or TNF-α for the indicated time. The number of viable cells at the indicated time points is expressed as percentage of seeded cells. LPS, LPS-stimulated cells; TNF-α, TNF-α-stimulated cells; NS, non-stimulated cells. Standard deviations of five independent experiments are reported.
Cells and reagents. The D1 cells were derived from murine splenic DC and maintained in vitro in IMDM supplemented with 30% R1 conditional medium as previously described. LPS (Escherichia coli sero- type 026:B6) was purchased from Sigma Chemical Co. and used at 10 μg/ml. Muriner TNF-α (Genetech Inc., San Francisco. Calif.) was used at 100 U/ml. Cells were grown and harvested at the same time.

As to tumor necrosis factor [TNFα], the “induction of IL-2 production/secretion by DC” value in assay [1] was “none of the inflammatory cytokines, used individually or added simultaneously to DC cultures, were able to promote IL-2 secretion”. Further, in the assay with D1 cells, the “doubling time of activated D1 cells” value stood at 130 h. Moreover, the “growth arrest of D1 cells” value with D1 cells (after stimulation) is “only a strong proliferation slow down but not a definitive growth arrest”.
